Tests used:
[1] = test system: OASL (2′-5′-Oligoadenylate Synthetase Like); assay: RT-PCR of psoriasis-related gene OASL; format: cell-based, human; details: HEKa cells, 20 uM, FIGS. 2 and 3
Experimental: (§1) A psoriasis-related genes were selected from the cDNA array result in which Compound 8 of the present invention was treated in HaCaT cells. In order to analyze whether Compound 8 has an effect on psoriasis alleviation, RT-PCR analysis for IL-36′ (interleukin 36 gamma), KLK7 (Kallikrein-related peptidase 7), OASL (2′-5′-Oligoadenylate Synthetase Like) and ALOX12B (Arachidonate 12-lipoxygenase, 12R type) which are very closely related to psoriasis was carried out. Further, KRT16 (Keratin 16), KRT6 (Keratin 6) and KRT1 (Keratin 1), known as psoriasis-related proliferation, differentiation markers were confirmed by a western blot analysis. As the specific experimental method, HEKa cells (Human Epidermal keratinocytes, adult), human-derived epidermal keratinocytes were seeded on a 24 well plate at a density of 1×10^5 cells, and cultured in an EpiLife medium (1× Human keratinocyte Growth supplement, 1× antibiotics) in an incubator under 37° C. and 5% CO2 for 24 hours. […]

[2] = test system: CCL20 (Chemokine (C-C motif) ligand 20); assay: Cytokine gene expression, CCL20, IL-17A/TNF-α condition; format: cell-based, human; details: FIG. 9
[3] = test system: LC3 (light chain 3) protein; assay: Western blot for LC3 protein, autophagy activation; format: cell-based, human; details: HaCaT cells; 20 uM dilution, 1 ml added to 1 ml medium; FIG. 1
Experimental: In order to analyze increased intracellular autophagy activation by treatment of Compound 8 of the present invention, a western blot analysis for LC3 (light chain 3) protein was performed.
As a specific experimental method, HaCaT, human epidermal keratinocytes were seeded in on a 6 well plate at a density of 3×10^5 cells, and cultured in DMEM (Dulbecco's Modified Eagle Media, Gibco BRL) in an incubator under 37° C. and 5% CO2 for 24 hours. Compound 8 of the present invention was dissolved in DMSO at a concentration of 10 mM to be a concentrate, and diluted with a medium to be at a concentration of 20 uM. Then in a state where 1 ml of medium was first in each well, 1 ml of each diluted solution was added thereto for treatment, and cultured for a certain period, and after completing the culture, the medium was removed, and then cells were disrupted with a SDS sample buffer, and each protein was separated by SDS-PAGE gel electrophoresis, and transferred to a PVDF (polyvinylidene fluoride) membrane. Thereafter, non-specific binding was eliminated using a blocking buffer, and an antibody against LC3 protein and a HRP-bound secondary antibody (anti-rabbit IgG HRP (sigma)) were reacted, and then an enhanced chemiluminescence (ECL) reaction using an ECL prime kit (Amersham Pharmacia) was carried out, thereby performing a ChemiDoc analysis.

[4] = test system: IL-1β (interleukin-1beta); assay: ELISA for IL-1β in LPS-treated HEKa cells; format: cell-based, human; details: LPS-induced inflammatory condition, 10·M, FIG. 10
Experimental: ELISA (enzyme-linked immunosorbent assay) for IL-1β (interleukin-1beta) which is very closely related to atopic inflammation and psoriasis was performed.
As a specific experimental method, HEKa cells (Human Epidermal keratinocytes, adult), human-derived epidermal keratinocytes were seeded on a 24 well plate at a density of 1×10^5 cells, and cultured in an EpiLife medium (1× Human keratinocyte Growth supplement, 1× antibiotics) in an incubator under 37° C. and 5% CO2 for 24 hours.
After culturing, while an inflammatory condition was induced by treatment with LPS (lipopolysaccharides) in each well, further treatment was performed with Compound 8 of the present invention and the compound of the following Comparative Example at a concentration of 10·M, and then the cells were incubated for a certain period. After completing culturing, media were collected, and then ELISA for IL-1β was carried out, and the results are shown in FIG. 10.

[5] = test system: STAT3 (Signal transducer and activator of transcription 3); assay: Expression of psoriasis-related transcription factor STAT3 in induced inflammatory condition; format: cell-based, human; details: IL-17A/TNFα- or IL-17A/IFNγ-induced inflammatory condition
IL-24 (interleukin-24) = assay: Cytokine gene expression, IL-24, TNFα/IFN-γ induced inflammatory condition; format: cell-based, human; details: FIG. 8
[6] = test system: psoriasis animal model induced by imiquimod 5% cream; assay: Psoriasis animal model, ear thickness; format: in vivo, BALB/c mice; details: ears treated together with imiquimod; digital caliper; FIG. 18
Experimental: (§2) In order to confirm the psoriasis treatment effect by Compound 8 of the present invention, dorsal hair of 8-week-old BALB/c mice (female) was removed using hair removal cream (Veet®, Oxy Reckitt Benckiser, Cedex, France), and subsequently imiquimod 5% cream (Aldara®; 3M Pharmaceuticals, UK; 62.5 mg) was applied on the back and both ears of the mice twice in the morning and in the afternoon (Sensitization; Day 0). Then, after a barrier recovery period of 2 days, imiquimod 5% cream (62.5 mg/day) was applied repeatedly for 7 days (Induction stage; Day 2 -Day 8), thereby inducing the psoriasis animal model.
There was no treatment on the left ear of the untreated control group, and the right ear was treated with cream not containing imiquimod and ethanol. The left ear of the experimental groups was treated only with imiquimod and ethanol, whereas the right ear of the experimental groups was treated with either Compound 8 or Compound 8 cream of the present invention together with imiquimod, and such method is specifically shown in FIG. 12.
When the animals were slaughtered, the thickness of the central part of both ears was measured using a digital caliper (Digital caliper, Marathon Inc. Belleville, ON, Canada).

KRT16 (Keratin 16) = assay: Western blot of proliferative marker KRT16; format: cell-based, human; details: FIG. 4
Experimental: as §1

[7] = test system: psoriasis animal model induced by imiquimod 5% cream; assay: Psoriasis animal model (imiquimod), clinical findings: erythema; format: in vivo, BALB/c mice
Experimental: as §2
After inducing the psoriasis animal model, Compound 8 of the present invention dissolved in ethanol (0.5%) and cream containing Compound 8 of the present invention (The same composition as that of the cosmetic composition of Example 14 […]; […]). An untreated control group and a disease control group (vehicle) were treated with cream not containing Compound 8 of the present invention (cosmetic composition of Comparative Example 2) and ethanol, and during the treatment period, imiquimod 5% cream was applied thereon every other day, thereby maintaining psoriasis.

KRT1 (Keratin 1) = assay: Western blot of differentiation marker KRT1; format: cell-based, human; details: FIG. 4
Experimental: as §1

[8] = test system: KLK7 (Kallikrein-related peptidase 7); assay: RT-PCR of psoriasis-related gene KLK7; format: cell-based, human; details: HEKa cells, 20 uM, FIGS. 2 and 3
Experimental: as §1

KRT6 (Keratin 6) = assay: Western blot of proliferative marker KRT6; format: cell-based, human; details: FIG. 4
Experimental: as §1

CCCCCCCCCCCCCCCC(=O)NCCCC[C@H](NC(=O)[C@H](CCCCN(CC(=O)O)CC(=O)O)N(CC(=O)O)CC(=O)O)C(=O)O [Compound 8]
expression level of OASL gene [1]: significantly decreased
expression level of CCL20 [2]: reduced
production of LC3-II [3]: increased
cytokine IL-1β secretion level [4]: significantly reduced
expression level of STAT3 [5]: reduced
expression level of IL-24 (IL-24 (interleukin-24)): reduced
thickness of the right (treated) ear compared with the left ear treated with 5% imiquimod and ethanol [6]: significant thickness reduction
KRT16 (proliferative marker) level (KRT16 (Keratin 16)): reduced
erythema on day 14, reduction level ([7]; day 14 after treatment, FIG. 14): very remarkable
erythema increased by imiquimod ([7]; topical on back, 0.5% in ethanol or 0.5% cream, treatment for 6 days, FIG. 13): significantly reduced
KRT1 (differentiation marker) level (KRT1 (Keratin 1)): increased
expression level of KLK7 gene [8]: significantly decreased
KRT6 (proliferative marker) level (KRT6 (Keratin 6)): reduced

Source: patent publication US10617662B2, “Autophagy activation-induced compound for improving skin inflammation for aging” (INCOSPHARM CORPORATION, priority 2017, dated 2020)
